Data: paper PMC10571957, “αV-Integrin-Dependent Inhibition of Glioblastoma Cell Migration, Invasion and Vasculogenic Mimicry by the uPAcyclin Decapeptide” (Cancers, 2023)
Where “and” joins values, the source holds several entries; their conditions need not be identical. Identical values can stand only once.

Key:
U87-MG cells = test: Boyden chamber Matrigel invasion, U87-MG; format: cell-based, human; conditions: for invasion, % basal, average expt 1: mean of expt 1
Procedure: The migration and invasion assays were performed using Boyden chambers and 8 µm pore size PVP-free filters coated with 50 µg/mL of collagen type VI (Sigma), as previously described. For the invasion assays, collagen-coated filters were further coated with 50 µg/mL Matrigel^TM (Sigma). Briefly, 11 × 10^4 U87-MG, 4 × 10^4 U251-MG, or 4 × 10^4 U138-MG/sample were pre-treated for 40 min at 37 °C with the indicated effectors. Then, the cells were allowed to migrate for 3 h or to invade for 5 h at 37 °C toward 5% FBS in DMEM/0.1% BSA. At the end of both assays, the cells on the lower filter surface were fixed, stained with haematoxylin, and counted under an optical microscope (Zeiss Axiophot, Carl Zeiss, Milan, Italy) at 20× magnification. […] The migrated or invaded cells were reported as percentage of basal migration or invasion in the presence of DMEM/0.1% BSA, taken as 100%, and analyzed as reported in Section 2.11.
Figure 4 Effect of uPAcyclin on matrix invasion of U87-MG, U251-MG, and U138-MG GBM cells. Quantitative analysis of U87-MG (A), U251-MG (B), and U138-MG (C) invasion. […] Data are expressed as in the legend to Figure 3. Results are expressed as percentages with respect to the basal invasion, considered as 100% (* p-value < 0.05; ** p-value < 0.005; *** p-value < 0.001).

U251-MG cells = test: Boyden chamber Matrigel invasion, U251-MG; format: cell-based, human; conditions: for invasion, % of basal, average 2 expts: mean of 2 expts; for invasion, % of basal, average expt 1: mean of expt 1; for invasion, % of basal, average expt 2: mean of expt 2; for invasion, % of basal, T-test list: single replicates of both expts
Procedure: The migration and invasion assays were performed using Boyden chambers and 8 µm pore size PVP-free filters coated with 50 µg/mL of collagen type VI (Sigma), as previously described. For the invasion assays, collagen-coated filters were further coated with 50 µg/mL Matrigel^TM (Sigma). Briefly, 11 × 10^4 U87-MG, 4 × 10^4 U251-MG, or 4 × 10^4 U138-MG/sample were pre-treated for 40 min at 37 °C with the indicated effectors. Then, the cells were allowed to migrate for 3 h or to invade for 5 h at 37 °C toward 5% FBS in DMEM/0.1% BSA. At the end of both assays, the cells on the lower filter surface were fixed, stained with haematoxylin, and counted under an optical microscope (Zeiss Axiophot, Carl Zeiss, Milan, Italy) at 20× magnification. The migration and invasion experiments were conducted in triplicate for U87-MG and in duplicate for U251-MG and U138-MG. The migrated or invaded cells were reported as percentage of basal migration or invasion in the presence of DMEM/0.1% BSA, taken as 100%, and analyzed as reported in Section 2.11.
Figure 4 Effect of uPAcyclin on matrix invasion of U87-MG, U251-MG, and U138-MG GBM cells. Quantitative analysis of U87-MG (A), U251-MG (B), and U138-MG (C) invasion. A total of 11 × 10^4 U87-MG or […] U251-MG or U138-MG/sample were pre-treated for 40 min at 37 °C with uPAcyclin (100 nM, 1 µM), anti-αV polyclonal (anti-αV-Pclonal) or monoclonal (anti-αV MoAb) antibody, or anti-actin polyclonal antibody (anti-actin), and then assayed in Boyden chambers at 37 °C, either for basal (BSA) or FBS-dependent invasion (5% FBS) for 5 h at 37 °C. Data are expressed as in the legend to Figure 3. Results are expressed as percentages with respect to the basal invasion, considered as 100% (* p-value < 0.05; ** p-value < 0.005; *** p-value < 0.001).

[1] = 100 nM, 5% FBS, 5 h, expt 1, duplicates
[2] = 100 nM, 5% FBS, 5 h, expt 2, duplicates
[3] = 100 nM, 5% FBS, 5 h, expt 3, duplicates
[4] = 1 µM, 5% FBS, 5 h, expt 1, duplicates
[5] = 1 µM, 5% FBS, 5 h, expt 2, duplicates

Ac-K^1P[ESPPEELK^10]-NH2 (sidechain bridge or staple) [uPAcyclin]
reduction in invasion (U87-MG cells; 100 nM, U87-MG, 5% FBS, 5 h): 50–60%
invaded cell number/field (U87-MG cells; [1]): 29 cell number/field and 28 cell number/field
invasion, % of basal (U87-MG cells; [1]): 111% and 108%
invaded cell number/field (U87-MG cells; [2]): 28 cell number/field and 29 cell number/field
invasion, % of basal (U87-MG cells; [2]): 117% and 121%
invaded cell number/field (U87-MG cells; [3]): 34 cell number/field and 33 cell number/field
invasion, % of basal (U87-MG cells; [3]): 131% and 127%
Invasion, %, average 3 expts (U87-MG cells; 100 nM, mean of 3 expts): 119%
invasion, % basal, average expt 1 (U87-MG cells; 100 nM): 110%
invasion, % basal, average expt 2 (U87-MG cells; 100 nM, mean of expt 2): 119%
invasion, % basal, average expt 3 (U87-MG cells; 100 nM, mean of expt 3): 129%
invasion, % of basal, T-test list (U87-MG cells; 100 nM, single replicates of 3 expts): 111 and 108 and 117 and 121 and 131 and 127
invasion, in words (U87-MG cells; 1 µM, U87-MG, 5% FBS, 5 h): reduced invasion to basal levels
invaded cell number/field (U87-MG cells; [4]): 24 cell number/field and 26 cell number/field
invasion, % of basal (U87-MG cells; [4]): 92% and 100%
Invasion, %, average 3 expts (U87-MG cells; 1 µM, headed average 3 expts (only expt 1 has data)): 96%
invasion, % basal, average expt 1 (U87-MG cells; 1 µM): 96%
invasion, % of basal, T-test list (U87-MG cells; printed 10 µM, single replicates): 92 and 100
reduction in invasion (U251-MG cells; 100 nM, U251-MG, 5% FBS, 5 h): 50–60%
invaded cell number/field (U251-MG cells; [1]): 14 cell number/field
invasion, % of basal (U251-MG cells; [1]): 156%
invaded cell number/field (U251-MG cells; [2]): 15 cell number/field and 14 cell number/field
invasion, % of basal (U251-MG cells; [2]): 136% and 127%
invasion, % of basal, average 2 expts (U251-MG cells; 100 nM, 5% FBS, 5 h): 144%
invasion, % of basal, average expt 1 (U251-MG cells; 100 nM, 5% FBS, 5 h): 156%
invasion, % of basal, average expt 2 (U251-MG cells; 100 nM, 5% FBS, 5 h): 132%
invasion, % of basal, T-test list (U251-MG cells; 100 nM): 156 and 136 and 127
invasion, in words (U251-MG cells; 1 µM, U251-MG, 5% FBS, 5 h): reduced invasion to basal levels
invaded cell number/field (U251-MG cells; [4]): 11 cell number/field and 9 cell number/field
invasion, % of basal (U251-MG cells; [4]): 122% and 100%
invaded cell number/field (U251-MG cells; [5]): 12 cell number/field and 10 cell number/field
invasion, % of basal (U251-MG cells; [5]): 109% and 91%
invasion, % of basal, average 2 expts (U251-MG cells; 1 µM, 5% FBS, 5 h): 106%
invasion, % of basal, average expt 1 (U251-MG cells; 1 µM, 5% FBS, 5 h): 111%
invasion, % of basal, average expt 2 (U251-MG cells; 1 µM, 5% FBS, 5 h): 100%
invasion, % of basal, T-test list (U251-MG cells; 1 µM): 122 and 100 and 109 and 91
